Earlier results as cited in US8247435B2, “Formulations for treating human and animal diseases” (priority 2009, dated 2012).
“Also recorded” adds a separate entry of the source. Read-outs that look alike come from different tables or passages of the source. Each block holds one molecule with its values, some of them ahead of it.

Columns and labels:
[1] = 300 mg/day, 4 months
[2] = oral; MS patients on immunosuppressive or immunomodulatory therapies
[3] = highest dose 3000 mg/day
Candida = details: 600 mg orally 3 times a day for 15 days
[4] = tested on: VEGF-dependent angiogenesis; details: VEGF-expressing CAMs
[5] = humans; not identified at doses used
[6] = tested on: human umbilical vein endothelial cells (HUVECs); details: 10 microM genistein
[7] = tested on: HTB-186 medulloblastoma cell line
[8] = tested on: Reuber H35 hepatoma cells; details: radiation in the presence of genistein; irradiation alone factor 20
normal bladder cells = details: normal physiological range of urine excretion (10 μg/ml)
[9] = not given; remark: listed apart in the source
[10] = 500 mg/m^2/day
ocular neovasculation = details: primates, systemic, twice weekly
[11] = tested on: human vascular endothelial cells; details: doses as low as
[12] = tested on: non-small cell lung cancer
Lewis lung carcinoma = details: mice, day 20
[13] = tested on: rat 13762 mammary carcinoma; details: single agent, 40 mg/kg
[14] = tested on: non-small cell lung cancer; details: with carboplatin and paclitaxel
[15] = not given; remark: listed apart in the source
[16] = cancer patients, 145 patients
[17] = not given; remark: listed apart in the source

Molecule: O=C(O)CCCCC1CCSS1 (stereo not drawn) [ALA, alpha-lipoic acid]
patients who were responders or high responders [1]: 22 of the 39

Molecule: CC(=O)O[C@H](CC(=O)[O-])C[N+](C)(C)C [ALC, Acetyl-L-carnitine]
patients with decreased fatigue intensity [2]: 63%
side effects and toxicities [3]: no toxicities were noted

Molecule: COC1=C(OC)C(=O)C(C/C=C(\C)CC/C=C(\C)CC/C=C(\C)CC/C=C(\C)CC/C=C(\C)CC/C=C(\C)CC/C=C(\C)CC/C=C(\C)CC/C=C(\C)CCC=C(C)C)=C(C)C1=O [CoQ10, ubiquinone]
prevalence of memory loss on most recent follow-up (from 8% on initial visit): 4%
prevalence of peripheral neuropathy on most recent follow-up (from 10% on initial visit): 2%
prevalence of dyspnea on most recent follow-up (from 58% on initial visit): 12%
prevalence of myalgia on most recent follow-up (from 64% on initial visit): 6%
prevalence of fatigue on most recent follow-up (from 84% on initial visit, average 240 mg/day, statin discontinued): 16%

Molecule: CC(=O)N[C@@H](CS)C(=O)O [NAC, N-Acetyl Cysteine]
antifungal activity of peripheral blood monocytes (PBM) (Candida): significantly enhanced
total vessel number relative to VEGF controls [4]: nearly half

Molecule: COc1cc(/C=C/C(=O)CC(=O)/C=C/c2ccc(O)c(OC)c2)ccc1O [curcumin]
maximum tolerated dose [5]: ≥ 8000 mg per day

mean plasma/serum genistein ([9]; American study, Western diet): 5.7 nmol/L
mean plasma/serum genistein ([9]; Japanese study): 248 nmol/L
plasma/serum genistein, range ([9]; Japanese study): 90 to 1204 nmol/L
excretion half-life ([9]; with soy supplementation): seven
Molecule: O=c1c(-c2ccc(O)cc2)coc2cc(O)cc(O)c12 [genistein, 4′5,7-trihydroxyisoflavone]
number of genes with altered expression of more than two fold [6]: 256
increase of the antiproliferative effect of cisplatin [7]: 1.3 fold
factor by which survival was reduced [8]: 10000
toxicity to normal bladder cells (normal bladder cells): not exhibit toxicity

Molecule: Oc1ccc(C=Cc2cc(O)cc(O)c2)cc1 [resveratrol, 3,4′,5-trihydroxystilbene]
levels required for cancer chemopreventive effects in cells in vitro (cells in vitro): at least 5 μM

Molecule: CC(C)[C@@H](CC[C@@H](C)[C@H]1CC[C@H]2[C@@H]3[C@H](O)C[C@H]4C[C@@H](NCCCNCCCCN)CC[C@]4(C)[C@H]3CC[C@]12C)OS(=O)(=O)O [squalamine]
plasma concentrations relative to those required for antiangiogenic effects in preclinical studies [10]: at least an order of magnitude higher
tolerability [10]: well tolerated
dose producing inhibition of ocular neovasculation and partial regression of new vessels (ocular neovasculation): 12 mg/m^2
dose that halted proliferation of human vascular endothelial cells [11]: 160 nM
patients with dose-limiting toxicity ([12]; 400 mg/m^2/day, arthralgia, myalgia, neutropenia): two of three
tolerability ([12]; continuously daily for 5 days with paclitaxel and carboplatin on day 1): well tolerated
number of lung metastases relative to controls (Lewis lung carcinoma): reduced to half; also recorded: reduced by half
tumor growth delay [13]: modest effect
objective responses, patients ([14]; 300 mg/m^2/day for one or more cycles, response = 50% or greater reduction in tumor size): 36%
patients with an objective response ([14]; all patients (11 of 36)): Thirty-one
tolerability ([15]; 384 mg/m^2/day, patients without prior exposure to squalamine): well-tolerated
best-tolerated dose ([15]; continuous intravenous infusion over 120 h, every 14 days, 19 patients): 192 mg/m^2/day

Molecule: O=c1[nH]c(=O)n(C2CCCO2)cc1F (stereo not drawn) [tegafur alone, tegafur]
50% survival time [16]: 92 days

amount excreted in the normal urine daily ([17]; in vivo): About 30 mcg
quantity excreted ([17]; injected in a large dose up to 100 mcg): up to 90%
Molecule: Cyanocobalamin [vitamin B12]

Molecule: angiostatin
total vessel number relative to VEGF controls [4]: nearly half
